Test [1] concerns exatecan-resistant KB cells. As to the kind of experiment: IC50 assay in exatecan-resistant KB cells. The test is classed as cell-based, human. As to conditions: for IC50: Homo sapiens. How it is done: To develop the TOP1 inhibitor resistant KB cells, the cells in flask (50-60% confluence) were repeatedly treated with increasing concentration of exatecan, topotecan, SN-38 or irinotecan for over 4 months. The starting TOP1 inhibitor treatment concentration was close to the KB cell's IC90 values.
The following day, cells were treated with selected TOP1 inhibitors (e.g., free exatecan) or NDC at suitable concentration ranges. […] The resistant factor can be calculated by using the following equation: […]

The test system of the next test is naïve KB cells. The test is described as follows: IC50 assay in naïve KB cells. The test is classed as cell-based. The conditions noted are these: Homo sapiens; naïve (regular) KB cells.
Test [2] relates to irinotecan-resistant KB cells. As to the kind of experiment: IC50 assay in irinotecan-resistant KB cells. The test is classed as cell-based, human.
Source text: (§1) Naïve human KB cell line were purchased from ATCC and maintained in folic acid free RPMI 1640 media/10% FBS, and 1% of penicillin/streptomycin. To develop the TOP1 inhibitor resistant KB cells, the cells in flask (50-60% confluence) were repeatedly treated with increasing concentration of exatecan, topotecan, SN-38 or irinotecan for over 4 months. The starting TOP1 inhibitor treatment concentration was close to the KB cell's IC90 values. After each treatment, the cells were carefully washed with fresh RPMI 1640 media and left to proliferate for an additional 2-3 days until reaching 50-60% confluence.
(§2) Both naïve and TOP1 inhibitor resistant KB cell were cultured in folic acid-free medium (RPMI1640, ThermoFisher, GIBCO). Cells were plated in opaque 96-well plates at a density of 3×10^3 cells per well (total of 90 μL) and allowed to attach overnight. […] After exposing the TOP1 inhibitors with both types of cells for the same period of time, the cell viability was assessed using the CellTiter-Glo2.0 assay (Promega) according to manufacturer's instructions. Data for both viability and proliferation were plotted using Prism7 software (GraphPad). The resistant factor can be calculated by using the following equation:

Results on two compounds are retold here after patent US11957760B2, “Folate receptor targeted nanoparticle drug conjugates and uses thereof” (priority 2020, dated 2024).

Each structure is given as a SMILES string. Like-named read-outs stand apart in the source and are kept apart here.

Source text for naïve KB cells: as §1, §2

For the compound `CC[C@@]1(O)C(=O)OCc2c1cc1n(c2=O)Cc2c-1nc1cc(F)c(C)c3c1c2[C@@H](N)CC3` [exatecan], the “resistance of exatecan-resistant versus naïve KB cells” value in test [1] is more than 8 ×. The IC50 (in general, the concentration at which inhibition is half-maximal) in test [1] (KB, KB cells pretreated 7× with exatecan) was 16.9 nM; in test [1] (KB cells pretreated 4× with exatecan, read-out: IC50), 4 nM; with naïve KB cells it was 2 nM.
As for `CCc1c2c(nc3ccc(OC(=O)N4CCC(N5CCCCC5)CC4)cc13)-c1cc3c(c(=O)n1C2)COC(=O)[C@]3(O)CC` [irinotecan], in test [2], the “resistance of irinotecan-resistant versus naïve KB cells” value is on record as 5 ×. Besides, the IC50 in test [2] (Homo sapiens, irinotecan-resistant KB cells) is 3.62 µM; in the test with naïve KB cells, 668 nM.
